Test results taken from US20230382886A1, “CONJUGATED TLR7 AND NOD2 AGONISTS” (UNIVERZA V LJUBLJANI, priority 2020, published 2023).

How the values were obtained:
[1] = system: CD8 positive T-lymphocytes; experiment: Antigen presentation of BMDCs to CD8+ T-lymphocytes; type: cell-based, mouse; details: for ability to promote BMDC antigen presentation to CD8 positive T-lymphocytes (ratio of CD25 positive T-lymphocytes with low CFSE fluorescence): 100 nM, ovalbumin, FIG. 4; for dose dependence of BMDC antigen presentation to CD8 positive T-lymphocytes: 1 nM to 1 μM, FIG. 6
Experimental: (§1) The effect of the conjugated compounds of the invention on antigen presentation of mouse bone marrow derived dendritic cells (BMDCs) to T-lymphocytes was examined.
(§2) BMDCs were obtained by harvesting bone marrow from mouse hind legs. The harvested cells were then cultured for 10 days in the presence of granulocyte-macrophage colony-stimulating factor
(§3) (GM-CSF) to ensure differentiation into dendritic cells. BMDCs were seeded on 96 well microtiter plates at 10.000 cells per well and stimulated in duplicates with conjugated compounds and ovalbumin (50 μg/mL) at 37° C. for 20 h. After this period, the supernatants were removed and either CD4+ T-Iymphocytes or CD8+ T-Iymphocytes were added.
(§4) The compounds were prepared as follows: First, stock solutions of the conjugated compounds were prepared in DMSO at a 1 mM concentration. The working dilutions of the conjugated compounds in medium were then added directly to BMDCs to ensure final concentrations ranging from 1 nM to 1 μM.
(§5) CD4+ and CD8+ T-lymphocytes were obtained from single-cell suspensions of spleens from OT-II and OT-I transgenic mice, respectively. These express a T-cell receptor that pairs with the CD4 or CD8 co-receptors and is specific for the ovalbumin antigen. After harvesting the spleen, CD4+ or CD8+ cell fractions were enriched with MACS separation technology (Miltenyi Biotec CD4+ T Cell Isolation Kit or CD8+ T Cell Isolation Kit, respectively). T-lymphocytes were then stained with CFSE and added to BMDCs at 50.000 cells per well.
(§6) After co-culturing the BMDCs and T-lymphocytes for 72 hours at 37° C., T-lymphocyte activation was assessed with flow cytometry by measuring the expression of CD25, characteristic for activated T-lymphocytes. Concurrently, the intensity of CFSE fluorescence was measured to evaluate T-lymphocyte proliferation. […] SG48, SG144 and RH32 were the tested conjugated compounds of the invention. Medium was used as a negative control. LPS (1 μg/mL) was used as the positive control. Intermediary compound SG8 was employed as a known NOD2 agonist of the desmuramylpeptide type (Gobec et al. 2018). Intermediary compound SG43 was employed as a known TLR7 agonist of the purine type (Akinbobuyi et al. 2016). The combination of SG8 and SG43 was employed to compare the activity of conjugated compounds against an unconjugated mixture of NOD2 and TLR7 agonists.

MEC-1 cancer cell line = experiment: PBMC cytotoxicity assay against MEC-1 target cells; type: cell-based; details: 1 μM; control medium; FIG. 1
Experimental: (§7) The TLR7 and NOD2 conjugated compounds of the invention were tested for their ability to activate the cytotoxic activity of peripheral blood mononuclear cells (PBMCs) towards cancer cell lines. The main effector fraction of PBMCs in this assay are natural killer (NK) cells, which play an essential role in the innate immune system through their direct cytotoxic activity against aberrant cells, especially tumour cells and virally infected cells. The flow cytometry-based method described hereafter measures the PBMC cytotoxic activity against target cancer cell lines by co-incubating PBMCs and cancer cells, which were pre-labelled by carboxyfluorescein succinimidyl ester (CFSE) to distinguish them from effector cells. Successful activation of effector cells by the tested compounds leads to higher degree of cell death in the target cell population.
(§8) Chronic myelogenous leukaemia K562 and chronic B cell leukaemia MEC-1 cell lines were used as target cells in the assay. Both cell lines were pre-cultured for at least 10 days before the assay was performed. Immediately prior to the addition of target cells to PBMCs, target cells were stained with CFSE at 2 μM for 15 minutes at 37° C. in the dark. Cells were then washed with medium and resuspended at 200.000 cells/mL.
(§9) PBMCs were isolated from whole blood by centrifugation with the Ficoll-Paque density gradient solution. After centrifugation, PBMCs were washed twice with PBS and resuspended in medium at 4.000.000 cells/mL. To perform the assay, PBMCs were seeded on 96 well microtiter plates at 400.000 cells per well and cultured in duplicates at 37° C. for 20 h in the presence of the compounds.
(§10) The compounds were prepared as follows: First, stock solutions of the conjugated compounds were prepared in DMSO at a 1 mM concentration. […]
(§11) After incubating the PBMCs in the presence of compounds, 10.000 CFSE stained target cells were added to each well for a final 40:1 ratio of effector cells versus target cells. After 4 h of co-incubation, cells were stained with the SYTOXTM Blue (Invitrogen) nucleic acid stain and analysed with flow cytometry. […]

[2] = system: CD4 positive T-lymphocytes; experiment: Antigen presentation of BMDCs to CD4+ T-lymphocytes; type: cell-based, mouse; details: for ability to promote BMDC antigen presentation to CD4 positive T-lymphocytes (ratio of CD25 positive T-lymphocytes with low CFSE fluorescence): 100 nM, ovalbumin, FIG. 3; for dose dependence of BMDC antigen presentation to CD4 positive T-lymphocytes: 1 nM to 1 μM, FIG. 5
Experimental: as §1, §2, §3, §4, §5, §6

K562 cancer cell line = experiment: PBMC cytotoxicity assay against K562 target cells; type: cell-based; details: 1 μM; control medium; FIG. 2
Experimental: as §7, §8, §9, §10, §11

Row | SMILES | ability to promote BMDC antigen presentation to CD8 positive T-lymphocytes (ratio of CD25 positive T-lymphocytes with low CFSE fluorescence) [1] | ability to activate the cytotoxic activity of PBMCs against the MEC-1 cancer cell line (ratio against the control) (MEC-1 cancer cell line) | ability to promote BMDC antigen presentation to CD4 positive T-lymphocytes (ratio of CD25 positive T-lymphocytes with low CFSE fluorescence) [2] | ability to activate the cytotoxic activity of PBMCs against the K562 cancer cell line (ratio against the control) (K562 cancer cell line) | dose dependence of BMDC antigen presentation to CD8 positive T-lymphocytes [1] | dose dependence of BMDC antigen presentation to CD4 positive T-lymphocytes [2]
1 | CCCCOc1nc(N)c2nc(O)n(Cc3ccc(C(=O)NCCOCCOCCNC(=O)CC[C@@H](NC(=O)[C@@H](NC(=O)CNC(=O)/C=C/c4ccc(O)c(OC)c4)C(C)C)C(=O)OCC)cc3)c2n1 [RH32] | promote BMDC antigen presentation | activate the cytotoxic activity of PBMCs | promote BMDC antigen presentation | activate the cytotoxic activity of PBMCs | – | –
2 | CCCCOc1nc(N)c2nc(O)n(Cc3ccc(C(=O)NCCCCCC(=O)Oc4ccc(/C=C/C(=O)NCC(=O)N[C@H](C(=O)N[C@H](CCC(=O)OCC)C(=O)OCC)C(C)C)cc4OC)cc3)c2n1 [SG48, Diethyl ((E)-3-(4-((6-(4-((6-amino-2-butoxy-8-hydroxy-9H-purin-9-yl)methyl)benzamido)hexanoyl)-oxy)-3-methoxyphenyl)acryloyl)glycyl-L-yalyl-D-glutamate] | promote BMDC antigen presentation | activate the cytotoxic activity of PBMCs | promote BMDC antigen presentation | activate the cytotoxic activity of PBMCs | dose-dependent | dose-dependent
3 | CCCCOc1nc(N)c2nc(O)n(Cc3ccc(C(=O)NCCOCCNC(=O)CC[C@@H](NC(=O)[C@@H](NC(=O)CNC(=O)/C=C/c4ccc(O)c(OC)c4)C(C)C)C(=O)OCC)cc3)c2n1 [SG144, Ethyl N5-(2-(2-(4-((6-amino-2-butoxy-8-hydroxy-9H-purin-9-yl)methyl)benzamido)ethoxy)ethyl)-N2-((E)-3-(4-hydroxy-3-methoxyphenyl)acryloyl)glycyl-L-yalyl-D-glutaminate] | promote BMDC antigen presentation | activate the cytotoxic activity of PBMCs | promote BMDC antigen presentation | activate the cytotoxic activity of PBMCs | dose-dependent | dose-dependent
